Reference: patent publication EP0408782A1, “Antihypoxic agent” (NAUCHNOISSLEDOVATELSKI CHIMIKOPHARMATZEVTICHEN INSTITUT, priority 1989, dated 1991)
Like-named read-outs stand apart in the source and are kept apart here.

Assays:
[1] = test system: mice; conditions: mouse, in vivo
[2] = in vivo; conditions: mouse
[3] = test system: mice; test: complete ischaemia by decapitation in mice (duration of respiratory movements of the isolated head); type: in vivo, white mice line H; conditions: 1 hour before
Description: Example 2. Pharmacological study of the cerebro-protective anti-ischaemic effect using the method of"complete ischaemia by decapitation" in mice. The experiments are carried out on white mice line H (18-22g) in groups of 8 animals. Complete […] caused by means of a decapitation of the animals using the method of Hollowach-Thurston et al.(9). The duration of the respiratory movements of the isolated head (in seconds) was measured. The results are calculated as a percentage towards the control group. […]

[4] = test system: mice; test: hypobaric hypoxia in mice (survival time in decompression chamber, 210 mmHg); type: in vivo, white mice line H; conditions: 1 hour before the hypoxia
Description: EXAMPLE 1: Pharmacological study: Cerebro-protective anti-hypoxic effect using the method "hypobaric hypoxia" in mice. The experiments are carried out on white mice line H (18-22 g) in groups of 8 animals. […] The survival time (in seconds) from the beginning of the hypoxia till the death of the animals was measured. The results were calculated as a percentage towards the control group. […]

With `Fc1ccc(C(c2ccc(F)cc2)N2CCN(C/C=C/c3ccccc3)CC2)cc1` [Flunarizine] the LD₅₀ ([1]; ip) was 204/158+264/ mg/kg, the LD₅₀ ([1]; po) was 232/182+295/ mg/kg and the LD50 ([2]; ip) was 204 mg/kg. The LD50 ([2]; po) was 232 mg/kg, the “Increase of the resistance towards ischaemia (% towards the control group)” value ([3]; 10 mg/kg intraperitoneally) was 42,8% and the “Increase of the resistancy towards hypoxia (% towards the control group)” value ([4]; 10 mg/kg intraperitoneally) was 11,7%.

For `NC(=O)CN1CCCC1=O` [Piracetam, 2-oxo-1-pyrrolidineacetamide], the LD50 ([2]; ip) was 8000 mg/kg, the LD50 ([2]; po) was 8000 mg/kg and the “Increase of the resistance towards ischaemia (% towards the control group)” value ([3]; 1600 mg/kg intraperitoneally) was 27,9%. The “Increase of the resistancy towards hypoxia (% towards the control group)” value ([4]; 1600 mg/kg intraperitoneally) was 22,8%.
